# Measurements: article PMC5750217 (Nature Communications, 2018)
# Biological target: T1, A1-T459C (mutant ASCT1) (Homo sapiens, UniProt P43007, T459C)
# T1 construct: expressed in transfected cells; host or cells: Xenopus laevis oocytes (cRNA injection)
# T1 sequence (P43007 1-532 T459C): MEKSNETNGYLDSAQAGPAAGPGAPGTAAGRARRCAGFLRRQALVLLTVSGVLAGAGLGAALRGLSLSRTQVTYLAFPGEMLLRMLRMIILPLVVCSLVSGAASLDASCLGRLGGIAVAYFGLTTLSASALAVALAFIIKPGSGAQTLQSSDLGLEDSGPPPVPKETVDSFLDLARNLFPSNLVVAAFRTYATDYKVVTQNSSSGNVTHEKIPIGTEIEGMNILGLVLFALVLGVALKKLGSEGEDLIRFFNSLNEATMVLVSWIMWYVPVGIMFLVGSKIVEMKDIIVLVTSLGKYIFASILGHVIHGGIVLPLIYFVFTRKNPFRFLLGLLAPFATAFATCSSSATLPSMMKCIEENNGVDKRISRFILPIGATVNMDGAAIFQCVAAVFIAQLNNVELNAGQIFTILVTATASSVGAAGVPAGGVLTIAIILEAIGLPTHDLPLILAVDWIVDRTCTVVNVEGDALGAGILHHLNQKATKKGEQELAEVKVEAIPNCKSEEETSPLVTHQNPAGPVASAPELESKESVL
# Assay: Two electrode voltage clamp, substrate-activated anion current in oocytes expressing A1-T459C
# Assay type: cell-based
# Settings: for EC50: A1-T459C in oocytes, NO3−-containing buffer, current at +60 mV
# Procedure: All chemicals were obtained from Sigma unless otherwise stated. Stage V oocytes were harvested from female Xenopus laevis (frogs) which were obtained from Nasco (Fort Alkinson, USA). Frogs were anaesthetised with 6.5 mM tricaine neutralised with 7.14 mM sodium bicarbonate. After making an incision in the abdomen of the frog, ovarian sacs were removed and stored in OR-2 buffer (82.5 mM NaCl, 2 mM KCl, 1 mM MgCl2, 5 mM hemisodium HEPES, pH 7.5). This surgical procedure follows a protocol (#2016/970) approved by the University of Sydney Animal Ethics Committee under the Australian Code of Practice for the Care and Use of Animals for Scientific Purposes. To isolate oocytes, the ovarian sacs were cut into small sections before being digested by agitation with 2 mg per ml Collagenase A for 1–2 h. Following digestion, defoliculated oocytes were initially rinsed with OR-2, followed by frog Ringer’s solution (96 mM NaCl, 2 mM KCl, 1 mM MgCl2, 1.8 mM CaCl2, 5 mM hemisodium HEPES, pH 7.5). A total of 20 ng of transporter cRNA was injected into oocytes which were stored in frog Ringer’s solution supplemented with 0.1% gentamycin, 50 μg per ml tetracycline, 2.5 mM pyruvate and 0.5 mM theophylline at 16–18 °C.
# After 2–4 days of microinjection, current recordings were made using the two electrode voltage clamp technique with a Geneclamp 500 amplifier (Axon Instruments, Foster City, CA) interfaced with a MacLab 2e chart recorder (ADI Instruments, Sydney, Australia) using the chart software, and a Digidata 1322A (Axon Instruments) controlled by an IBM-compatible computer using the pClamp software (version 10, Molecular Devices, Union City, CA). The current–voltage relationships for substrate elicited conductances were obtained by subjecting cells to 200 ms voltage pulses between −100 mV and + 60 mV in 10 mV steps. Current–voltage relationships were calculated by subtracting steady state current measurements in the absence of substrate from corresponding current measurements in the presence of substrate. […]
Compound,EC50 [µM],"GPNA % inhibition of L-serine activated current (A1-T459C, GPNA co-applied with EC50 of L-serine, maximal dose / 1 mM GPNA (Table 1 footnote)) [%]"
NC(=O)CC[C@H](N)C(=O)O [L-glutamine],260 ± 80,–
"N[C@@H](CCC(=O)Nc1ccc([N+](=O)[O-])cc1)C(=O)O [GPNA, glutamyl-p-nitroanilide]",–,18 ± 1
N[C@@H](CO)C(=O)O [L-serine],83 ± 6,–
